Laboratory results published in patent publication US10471030B2, “Immunomodulatory and differentiating function selective retinoid and rexinoid compounds in combination with immune modulators for cancer immunotherapy” (Io Therapeutics, Inc., priority 2017, dated 2019).

Tests used:
[1] = test system: MM cell lines and MM CD138+ primary cells; experiment: BTZ sensitivity of MM cells, clonogenic or cellular recovery, liquid or BM stroma; type: cell-based, human; details: for BTZ resistance after separation from BM stroma: H929 cells, 5-day stroma co-culture, fresh media 0 to 48 hr; for sensitivity of MM cells to BTZ: BTZ 2.5 nM for 48 hr
Protocol: (§1) 24-well plates were coated with 0.1% gelatin in PBS for 30 min at 37° C. The gelatin solution was removed, and the stromal cells were cultured overnight at a density of 5×10^4 cells/well to obtain a confluent monolayer. At that time, MM cell lines or primary MM cells (1×10^5 in 2 ml) were added to the stroma cultures. The stroma cocultures were incubated at 37° C. in RPMI containing 10% FCS, L-glutamine, and P/S, with or without AGN194310 (1 μM for 5 days), R115866 (1 μM for 5 days), IRX5183 (1 μM for 5 days), or BTZ (2.5 nM for 48 hr).
MM cells were separated from BM stromal cells by gently pipetting several times around the well. Detached cells were centrifuged, resuspended in fresh media, and incubated in a 24-well plate for 1 hr at 37° C. During this short incubation period, contaminating stromal cells attached to the well, while MM cells remained in suspension. MM cells were then recovered by gently pipetting. This protocol was used for qRT-PCR and CFU coculture experiments. The purity achieved using this protocol was confirmed by flow cytometry to be 98%-99% MM cells and less than 2% contaminating stroma.
After treatment, MM cells were collected, washed with PBS, and plated at a density of 5,000 cells/ml in 1 ml of 1.32% methylcellulose supplemented with 30% FBS, 10% BSA, L-glutamine, P/S, and 0.1 mM β-ME. Cells were plated in triplicate in 35-mm culture dishes, incubated at 37° C., and scored for the presence of colonies 14 days later.
To determine whether decreased retinoid signaling contributes to BTZ resistance within the BM niche, MM cell lines and MM CD138+ primary cells were incubated with BM stroma for 5 days, followed by BTZ treatment.
Strategies to overcome microenvironment-dependent chemoprotection have focused on mobilization of cancer cells from the BM niche into the peripheral circulation. It was analyzed whether the change in phenotype and subsequent BTZ resistance of MM cells were lost upon separation from the BM stroma, a process that mimics mobilization. To this end, H929 cells were separated from BM mesenchymal cells following a 5-day stroma co-culture, incubated in fresh media (RPMI with 10% FBS) for 0 to 48 hr, and then treated with BTZ. […] Thus, microenvironment-dependent BTZ resistance induced by the change in MM cell phenotype may not immediately be reversed by tumor mobilization.

[2] = test system: MM H929 cell lines and MM CD138+ primary cells; experiment: mRNA expression of B cell and PC markers in MM cells, liquid or BM stroma co-culture (qRT-PCR); type: cell-based, human; details: 1 μM for 5 days; for expression of differentiation markers: liquid conditions (absence of stroma)
Protocol: as §1
(§2) Total RNA was extracted using the RNeasy Mini Kit (QIAGEN) according to the manufacturer's instructions. cDNA was synthesized by reverse transcription using the iScript cDNA Synthesis Kit (Bio-Rad). qRT-PCR was performed with iTaq SYBR Green Supermix (Bio-Rad) using sequence specific primers. Gene expression was normalized to GAPDH, and relative quantification was calculated using ΔΔCt. All experiments were performed in duplicate and run on the Bio-Rad CFX96 machine.
The BM microenvironment (also called “niche”) limits PC differentiation by modulating retinoid signaling. A population of MM progenitors, phenotypically similar to B cells, is intrinsically resistant to BTZ and contributes to MRD and relapse. To investigate whether the BM niche plays a role in determining the phenotype of MM cells, the mRNA expression of B cell and PC markers in MM H929 cell lines (FIGS. 3A-D) and MM CD138+ primary cells (FIGS. 3E-H) was analyzed following co-culture with mouse BM stroma using human-specific primers. […] In contrast, co-culture of MM cells with BM stroma decreased the mRNA expression of B lymphocyte-induced maturation protein 1 (BLIMP1) and spliced X box-binding protein 1 (XBP1s) (FIG. 3B, C, F, G), which are critical mediators of PC differentiation.
The BM niche regulates hematopoietic stem cell (HSC) differentiation by expressing the retinoid-inactivating enzyme CYP26. CYP26 enzymes were highly expressed in BM mesenchymal cells, while their expression was barely detectable in MM cells. Since retinoid signaling promotes PC differentiation and potentiates Ig secretion, it was determined whether stromal CYP26 is responsible for inducing a B cell phenotype in MM cells. To this end, co-culture conditions were treated with the CYP26 inhibitor R115866 (R115) or the CYP26-resistant RA receptor α-selective (RARα-selective) retinoid IRX5183 (IRX).

MM cells = experiment: surface CD138 expression of MM cells (flow cytometry); type: cell-based, human; details: 1 μM
Protocol: as §1
Following treatment, MM cells were collected, washed with PBS, and stained for 15 min at room temperature with phycoerythrin-conjugated (PE-conjugated) anti-CD138. Cells were washed to remove unbound antibody and evaluated in a FACSCalibur system (BD Biosciences). Stromal cells were identified by GFP expression, and viable cells were identified using 7-aminoactinomycin D (7-AAD). To calculate cell numbers, live GFP-cells were normalized to calibration beads.
Expression of CD138 is a hallmark of normal PC differentiation as well MM PCs.

CD4+ T cells = experiment: in vivo T cell differentiation in mice (FoxP3 expression in CD4+ T cells of blood and spleen); design: species or system mouse; details: in vivo assay; data not shown
Protocol: To expand on the finding above, the in vivo effects of a RARα agonist on T cell differentiation was evaluated in a mouse model. Mice were treated with 100 μg of compound IRX5183 or an equivalent volume of DMSO (vehicle control) every other day for 10 days. Lymphocytes from the blood and spleen were then isolated and FoxP3 expression in CD4^+ T cells was assessed.

[3] = test system: Naive CD4+ CD25− FoxP3− cells; experiment: Treg cell differentiation from naive T cells in vitro (FoxP3-GFP, flow cytometry); type: cell-based, mouse; details: in vitro assay; data not shown
Protocol: (§3) To determine whether a RARα agonist could affect T cell differentiation, T cells were incubated with a RARα agonist to determine its effect on Foxp3 expression. Naive CD4^+ CD25^− FoxP3^− cells were purified from a Foxp3-GFP mouse using flow cytometry by sorting and isolating based upon a GFP^− phenotype. These cells were activated polyclonally with αCD3 in vitro in the presence of IL-2 and TGF-β. These cells were then cultured in media with various concentrations of compound IRX5183 (a RARα agonist) and the expression of FoxP3-GFP was analyzed by flow cytometry. The RARα agonist compound IRX5183 enhanced differentiation of immunosuppressive Treg cells and inhibited differentiation of inflammatory TH17 cells from naïve T cells in vitro (Table 2).

[4] = test system: Naive CD4+ CD25− FoxP3− cells; experiment: Th17 cell differentiation from naive T cells in vitro; type: cell-based, mouse; details: in vitro assay; data not shown
Protocol: as §3

B16F10 tumor cells = experiment: survival of C57BL/6 mice engrafted with B16F10 tumor cells; type: in vivo; details: at 50 days; 10 nM RARγ agonist; vehicles only 0%
Protocol: The anti-tumor effects of anti-CTLA-4 antibody treatment combined with 10 nM RAR ? agonist (AGN204647 (IRX4647)) are examined in C57BL/6 mice engrafted with B16F10 tumor cells. […] The survival rate of the mice treated with anti-CTLA-4 antibody alone is 40% at 50 days while the mice treated with RAR ? agonist alone have a 30% survival in the same time.

OCI-AML3 cells = experiment: CFU experiments off and on stroma, OCI-AML3 cells; type: cell-based; details: 10^−6 M ATRA, IRX5183, or 10^−7 M AM80
Excerpt: (§4) Data across three independent experiments.

Kasumi-1 cells = experiment: CFU experiments off and on stroma, Kasumi-1 cells; type: cell-based; details: 10^−6 M ATRA, IRX5183, or 10^−7 M AM80
Excerpt: as §4

NB4 cells = experiment: CFU experiments off and on stroma, NB4 cells; type: cell-based; details: 10^−7 M ATRA, IRX5183, or 10^−8 M AM80
Excerpt: as §4

[5] = test system: H929 luciferase+ (Luc+) cells; experiment: systemic MM xenograft, bioluminescence; type: in vivo, NSG mice; details: monotherapy, 4 weeks; BTZ 0.5 mg/kg i.p. twice weekly, IRX 10 mg/kg once daily
Protocol: For the systemic MM model, 2×10^6 Luc+/GFP+ H929 cells were injected via the tail vein into 16-week-old male NSG mice. After engraftment, as determined by an exponential increase in bioluminescence, mice were treated with BTZ (0.5 mg/kg i.p.) twice weekly and with IRX (10 mg/kg) once daily. Tumor burden was assessed by bioluminescence, as above.
To test whether retinoids can enhance BTZ activity in MM, a systemic MM xenograft was developed by injecting 2×10^6 H929 luciferase+ (Luc+) cells via the tail vein of non-obese, diabetic, severe combined immunodeficiency IL-2 receptor γ-KO (NSG) mice. The animals were randomized to receive IRX, BTZ, or a combination of both, and disease burden was followed weekly by bioluminescence imaging (FIG. 6).

H929 Luc+ cells = experiment: subcutaneous xenograft model of MM-niche interactions with WT or Smo-KO stroma, bioluminescence; type: in vivo, NSG mice; details: BTZ 0.5 mg/kg i.p. twice weekly
Protocol: 1×10^6 H929 Luc+ cells and 1×10^6 mouse BM stromal cells were resuspended in 100 μl […]®, diluted with RPMI (1:1), and injected subcutaneously into 16-week-old male NSG mice. After 4 days, treatment with BTZ (0.5 mg/kg i.p. twice weekly) and IRX (10 mg/kg i.p. daily) was initiated. Tumor burden was assessed by bioluminescence using the In Vivo Imaging System (PerkinElmer). For imaging, mice were exposed to 120 mg/kg D-luciferin via intraperitoneal injection […] before imaging and were anesthetized using isoflurane. Images were analyzed with Living Image Software, version 2.5 (PerkinElmer), and data were quantified as photons/second.
To study to what extent an RA-low environment created by the BM stroma and enhanced by MM cells via paracrine Hedgehog signaling contributes to BTZ resistance, a xenograft model of MM-niche interactions was developed. Each mouse carried 2 subcutaneous tumors consisting of H929 Luc+ cells and either WT (anterior tumors) or Smo-KO stroma (posterior tumors). Mice were treated with IRX (10 mg/kg i.p. daily), BTZ (0.5 mg/kg i.p. twice weekly), or a combination of both. The growth of tumors bearing WT or Smo-KO stroma was not different in untreated or IRX-treated groups (FIGS. 9 and 10). […] While some tumors in the treatment group receiving combined IRX and BTZ appeared to have regressed completely, even after anatomical study, this was not the case for all the mice in this group.

CYP26A1 = experiment: stromal CYP26A1 expression in BM stromal cells (qRT-PCR); type: cell-based; details: for CYP26A1 expression on BM stromal cells: soluble factors tested
Protocol: as §2

CCc1ccc(C2=CC(C)(C)Sc3ccc(C#Cc4ccc(C(=O)O)cc4)cc32)cc1 [AGN194310]
BTZ sensitivity of MM cells ([1]; liquid, 1 μM for 5 days, then BTZ): decreasing BTZ sensitivity
expression of differentiation markers [2]: mimicked the changes induced by BM stromal cells
surface CD138 expression (MM cells; without stroma): markedly decreased

CCOc1c(Br)cc(C(=O)Nc2ccc(C(=O)O)cc2)cc1C(=O)c1ccc(C)cc1 [AGN196996]
Th17 cell numbers (CD4+ T cells): increases Th17 cell numbers
Treg cell numbers (CD4+ T cells): decreases Treg cell numbers
Treg cell numbers [3]: decreases Treg cell numbers
Th17 cell numbers [4]: increases Th17 cell numbers

CC1(C)CCC(C)(C)c2cc(C(/C=C/c3cccc(C(=O)O)c3)=N/O)ccc21 [AGN204647]
survival rate (B16F10 tumor cells): 30%

CC1(C)CCC(C)(C)c2cc(NC(=O)c3ccc(C(=O)O)cc3)ccc21 [AM80, 4-[(5,6,7,8-tetrahydro-5,5,8,8-tetramethyl-2-naphthalenyl)carbamoyl]benzoic acid]
clonogenic growth (CFU) (OCI-AML3 cells): decrease in clonogenic growth compared to control
clonogenic growth (CFU) (Kasumi-1 cells): decrease in clonogenic growth compared to control
clonogenic growth (CFU) (NB4 cells): decrease in clonogenic growth compared to control

CC1=C(/C=C/C(C)=C/C=C/C(C)=C/C(=O)O)C(C)(C)CCC1 [ATRA, all-trans retinoic acid]
clonogenic growth (CFU) (OCI-AML3 cells): stroma blockage
clonogenic growth (CFU) (Kasumi-1 cells): stroma blockage
clonogenic growth (CFU) (NB4 cells): stroma blockage

CC(C)C[C@H](NC(=O)[C@H](Cc1ccccc1)NC(=O)c1cnccn1)B(O)O [BTZ, bortezomib]
BTZ resistance after separation from BM stroma ([1]; then BTZ): remained partially resistant to BTZ for up to 48 hr
sensitivity of MM cells to BTZ ([1]; absence of BM stroma (liquid)): highly sensitive
sensitivity of MM cells to BTZ ([1]; after 5 days incubation with BM stroma): induced BTZ resistance
tumor burden (bioluminescence) [5]: decreased tumor growth compared with untreated controls
response of tumors carrying Smo-KO stroma (bioluminescence) (H929 Luc+ cells): significant response
response of tumors with WT stroma (bioluminescence) (H929 Luc+ cells): refractory to BTZ treatment

CCC(CC)C(c1ccc(Nc2nc3ccccc3s2)cc1)n1cncn1 (stereo not shown) [Compound R115866]
stroma-induced BTZ resistance ([1]; BM stroma with 1 μM test agent for 5 days, then BTZ 2.5 nM for 48 hr): overcome
BTZ resistance after separation from BM stroma ([1]; then BTZ): prevented the development of a BTZ-resistant phenotype
mRNA expression of BCL6, BLIMP1, XBP1s, CHOP markers ([2]; BM stroma co-cultures): restored all markers to levels comparable to those of liquid control conditions
expression of differentiation markers [2]: did not significantly affect
surface CD138 expression (MM cells; BM stromal cell co-cultures): restored CD138 expression

CC1=C2C[C@H]3[C@@H](CC=C4C[C@@H](O)CC[C@@]43C)[C@@H]2CC[C@]12O[C@@H]1C[C@H](C)CN[C@H]1[C@H]2C [cyclopamine]
stromal Cyp26a1 upregulation by MM cells (CYP26A1; co-culture with MM cells): partially overcame

IL-6: cytokine, soluble factor tested
CYP26A1 expression on BM stromal cells (CYP26A1): no significant effects

TNF-α
CYP26A1 expression on BM stromal cells (CYP26A1): no significant effects
